According to patent EP4653437A2 (Innovo Therapeutics Inc., priority 2023, dated 2024):
Like-named read-outs stand apart in the source and are kept apart here.

Columns and labels:
[1] = tested on: A549 cells; test: Measurement of PGE2-increasing activity in A549 cells (IL-1β stimulated, PGE2 quantified in supernatant); assay type: cell-based; settings: Homo sapiens, read-out: Increased PGE2 production in A549 cells
Summary of the method: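 PGE2 secreted into the supernatant was measured by immunoassay 24 h after treatment. Before treatment, A549 cells were cultured 24 h in 10% FBS F12K, washed, and placed in serum-free medium containing compound (DMSO 0.1% final) plus or minus IL-1β, incubated at 37 °C, 5% CO2.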

[2] = target: T1, human 15-PGDH (Homo sapiens, UniProt P15428); test: Evaluation of 15-PGDH inhibitory activity (fluorescence enzyme assay, NAD+/PGE2); assay type: biochemical; settings: human 15-PGDH enzyme, fluorescence Vmax
T1 construct: purchased R&D System 5660-DH
T1 sequence (P15428 1-266): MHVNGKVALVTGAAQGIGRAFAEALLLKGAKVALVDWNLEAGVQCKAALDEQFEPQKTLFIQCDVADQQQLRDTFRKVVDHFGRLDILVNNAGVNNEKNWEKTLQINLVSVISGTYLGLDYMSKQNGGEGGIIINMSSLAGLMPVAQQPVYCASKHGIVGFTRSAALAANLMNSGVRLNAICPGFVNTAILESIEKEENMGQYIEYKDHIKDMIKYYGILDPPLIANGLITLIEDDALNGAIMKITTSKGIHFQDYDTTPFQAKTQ
Protocol: 15-PGDH inhibition activity of Example compounds was measured as follows. 6.7 ng of human 15-PGDH (R&D System# 5660-DH) enzyme (10 µL) was added to a black 96 well plate, 60 µL of buffer (50 mM Tris-HCl, pH 7.5, 0.01% Tween 20) was added, and 10 µL of 200 µM β-Nicotinamide adenine dinucleotide sodium salt (Sigma, Cat# N0632-5G) was added. 10 µL of (10x) compound solution in DMSO was added and reacted for 10 minutes at room temperature.

[3] = 24 h, concentration of 1 µM of each compound, IL-1β treated A549 cells

Row | IC50 [2] | SMILES | fold induction at 1 µM [1, 3] | fold induction at 1 µM ([1]; A549, 24 h)
1 | ≤ 100 nM | O=C(NCc1cncs1)c1cncc(-c2cccc3c(C(=O)N4CCCCC4)cnn23)c1 [Example 57, 5-(3-(piperidine-1-carbonyl)pyrazolo[1,5-a]pyridin-7-yl)-N-(thiazol-5-ylmethyl)nicotinamide] | > 1.5 | –
2 | ≤ 100 nM | Cn1nc(N)c2ccc(-c3cccc4c(C(=O)N5CCCCC5)cnn34)cc21 [Example 310, [7-(3-amino-1-methyl-indazol-6-yl)pyrazolo[1,5-a]pyridin-3-yl]-(1-piperidyl)methanone] | > 1.5 | –
3 | ≤ 100 nM | O=C(c1ccc(-c2cccc3c(C(=O)N4CCCCC4)cnn23)cn1)N1CC(F)C1 [Example 213, (3-fluoroazetidin-1-yl)-[5-[3-(piperidine-1-carbonyl)pyrazolo[1,5-a]pyridin-7-yl]-2-pyridyl]methanone] | > 1.5 | –
4 | ≤ 100 nM | O=C1NCc2ccc(-c3cccc4c(C(=O)N5CCC6(CCC6)CC5)cnn34)cc21 [Example 392, 6-(3-(7-azaspiro[3.5]nonane-7-carbonyl)pyrazolo[1,5-a]pyridin-7-yl)isoindolin-1-one] | > 1.5 | –
5 | ≤ 100 nM | O=C(c1cnn2c(-c3cc(F)ncc3Cl)cccc12)N1CCCCC1 [Example 298, (7-(5-chloro-2-fluoropyridin-4-yl)pyrazolo[1,5-a]pyridin-3-yl)(piperidin-1-yl)methanone] | > 1.5 | –
6 | ≤ 100 nM | O=C(c1cnn2c(-c3cnc(N4CCOC4=O)nc3)cccc12)N1CCCCC1 [Example 308, 3-(5-(3-(piperidine-1-carbonyl)pyrazolo[1,5-a]pyridin-7-yl)pyrimidin-2-yl)oxazolidin-2-one] | > 1.5 | –
7 | ≤ 100 nM | CC(C)C1CCCN(C(=O)c2cnn3c(-c4ccc5c(c4)C(=O)NC5)cccc23)C1 (centres unmarked) [Example 400, 6-(3-(3-isopropylpiperidine-1-carbonyl)pyrazolo[1,5-a]pyridin-7-yl)isoindolin-1-one] | > 1.5 | –
8 | ≤ 100 nM | O=C(Nc1ccc(-c2cccc3c(C(=O)N4CCCCC4)cnn23)cn1)c1cccnc1 [Example 287, N-(5-(3-(piperidine-1-carbonyl)pyrazolo[1,5-a]pyridin-7-yl)pyridin-2-yl)nicotinamide] | > 1.5 | –
9 | ≤ 100 nM | CC1c2cc(-c3cccc4c(C(=O)N5CCCCC5)cnn34)cnc2C(=O)N1C (centres unmarked) [Example 280, 5,6-dimethyl-3-(3-(piperidine-1-carbonyl)pyrazolo[1,5-a]pyridin-7-yl)-5,6-dihydro-7H-pyrrolo[3,4-b]pyridin-7-one] | > 1.5 | –
10 | ≤ 100 nM | CN(C)CCNC(=O)c1ccc(-c2cccc3c(C(=O)N4CCCCC4)cnn23)cc1 [Example 63, N-(2-(dimethylamino)ethyl)-4-(3-(piperidine-1-carbonyl)pyrazolo[1,5-a]pyridin-7-yl)benzamide] | > 1.5 | –
11 | ≤ 100 nM | N#Cc1c(F)cc(-c2cccc3c(C(=O)N4CCCCC4)cnn23)cc1F [Example 290, 2,6-difluoro-4-(3-(piperidine-1-carbonyl)pyrazolo[1,5-a]pyridin-7-yl)benzonitrile] | > 1.5 | –
12 | ≤ 100 nM | N#CCCNC(=O)c1ccc(-c2cccc3c(C(=O)N4CCCCC4)cnn23)cn1 [Example 85, N-(2-cyanoethyl)-5-(3-(piperidine-1-carbonyl)pyrazolo[1,5-a]pyridin-7-yl)picolinamide] | > 1.5 | –
13 | ≤ 100 nM | Nc1cncc(-c2cccc3c(C(=O)N4CCCCC4)cnn23)c1 [Example 9, (7-(5-aminopyridin-3-yl)pyrazolo[1,5-a]pyridin-3-yl)(piperidin-1-yl)methanone] | > 1.5 | –
14 | ≤ 100 nM | O=C(c1cnn2c(-c3ccc(N4CCC5(CCC5)C4)nc3)cccc12)N1CCCCC1 [Example 223, (7-(6-(6-azaspiro[3.4]octan-6-yl)pyridin-3-yl)pyrazolo[1,5-a]pyridin-3-yl)(piperidin-1-yl)methanone] | > 1.5 | –
15 | ≤ 100 nM | O=C(c1cnn2c(-c3ccccc3)cccc12)N1CC2CCC1CC2 [Example 228, (2-azabicyclo[2.2.2]octan-2-yl)(7-phenylpyrazolo[1,5-a]pyridin-3-yl)methanone] | < 1.5 | –
16 | ≤ 100 nM | O=C(c1cncc(-c2cccc3c(C(=O)N4CCCCC4)cnn23)c1)N1CC2(CC(O)C2)C1 [Example 225, (6-hydroxy-2-azaspiro[3.3]heptan-2-yl)-[5-[3-(piperidine-1-carbonyl)pyrazolo[1,5-a]pyridin-7-yl]-3-pyridyl]methanone] | > 1.5 | –
17 | ≤ 100 nM | O=C(c1cnn2c(-c3ccccc3)cccc12)N1CC2CCC1C2 (centres unmarked) [Example 227, (2-azabicyclo[2.2.1]heptan-2-yl)(7-phenylpyrazolo[1,5-a]pyridin-3-yl)methanone] | > 1.5 | –
18 | ≤ 100 nM | Cc1nc(-c2ncc(-c3cccc4c(C(=O)N5CCCCC5)cnn34)cn2)no1 [Example 317, [7-[2-(5-methyl-1,2,4-oxadiazol-3-yl)pyrimidin-5-yl]pyrazolo[1,5-a]pyridin-3-yl]-(1-piperidyl)methanone] | > 1.5 | –
19 | ≤ 100 nM | O=C(O)c1ncc(-c2cccc3c(C(=O)N4CCCCC4)cnn23)cc1F [Example 243, 3-fluoro-5-[3-(piperidine-1-carbonyl)pyrazolo[1,5-a]pyridin-7-yl]pyridine-2-carboxylic acid] | > 1.5 | –
20 | ≤ 100 nM | O=C(NCC1CC1)c1cccc(-c2cccc3c(C(=O)N4CCCCC4)cnn23)c1 [Example 32, N-(cyclopropylmethyl)-3-(3-(piperidine-1-carbonyl)pyrazolo[1,5-a]pyridin-7-yl)benzamide] | < 1.5 | –
21 | ≤ 100 nM | O=C(NCC1CC1)c1ccc(-c2cccc3c(C(=O)N4CCCCC4)cnn23)cn1 [Example 80, N-(cyclopropylmethyl)-5-(3-(piperidine-1-carbonyl)pyrazolo[1,5-a]pyridin-7-yl)picolinamide] | > 1.5 | –
22 | ≤ 100 nM | O=C1NCc2ccc(-c3cccc4c(C(=O)N5CC6(CC(F)C6)C5)cnn34)cc21 [Example 411, 6-(3-(6-fluoro-2-azaspiro[3.3]heptane-2-carbonyl)pyrazolo[1,5-a]pyridin-7-yl)isoindolin-1-one] | > 1.5 | –
23 | ≤ 100 nM | CC(C)Nc1ccc(-c2cccc3c(C(=O)N4CCCCC4)cnn23)cn1 [Example 109, (7-(6-(isopropylamino)pyridin-3-yl)pyrazolo[1,5-a]pyridin-3-yl)(piperidin-1-yl)methanone] | > 1.5 | –
24 | ≤ 100 nM | O=C(c1cnn2c(-c3cccc(C=NO)c3)cccc12)N1CCCCC1 [Example 253, 3-(3-(piperidine-1-carbonyl)pyrazolo[1,5-a]pyridin-7-yl)benzaldehyde oxime] | > 1.5 | –
25 | ≤ 100 nM | CN1Cc2ccc(-c3cccc4c(C(=O)N5CCCCC5)cnn34)cc2C1=O [Example 141, 2-methyl-6-(3-(piperidine-1-carbonyl)pyrazolo[1,5-a]pyridin-7-yl)isoindolin-1-one] | > 1.5 | –
26 | ≤ 100 nM | O=C(NCC1CC1)c1ccc(-c2cccc3c(C(=O)N4CCCCC4)cnn23)cc1 [Example 64, N-(cyclopropylmethyl)-4-(3-(piperidine-1-carbonyl)pyrazolo[1,5-a]pyridin-7-yl)benzamide] | > 1.5 | –
27 | ≤ 100 nM | Cc1nc(-c2cc(F)cc(-c3cccc4c(C(=O)N5CCCCC5)cnn34)c2)no1 [Example 322, (7-(3-fluoro-5-(5-methyl-1,2,4-oxadiazol-3-yl)phenyl)pyrazolo[1,5-a]pyridin-3-yl)(piperidin-1-yl)methanone] | > 1.5 | –
28 | ≤ 100 nM | Cc1nc(-c2ncc(-c3cccc4c(C(=O)N5CCCCC5)cnn34)cc2F)no1 [Example 263, [7-[5-fluoro-6-(5-methyl-1,2,4-oxadiazol-3-yl)-3-pyridyl]pyrazolo[1,5-a]pyridin-3-yl]-(1-piperidyl)methanone] | > 1.5 | –
29 | ≤ 100 nM | Cn1cnc2cc(-c3cccc4c(C(=O)N5CCCCC5)cnn34)ccc2c1=O [Example 251, 3-methyl-7-(3-(piperidine-1-carbonyl)pyrazolo[1,5-a]pyridin-7-yl)quinazolin-4(3H)-one] | > 1.5 | –
30 | ≤ 100 nM | O=C(NCc1ccon1)c1ccc(-c2cccc3c(C(=O)N4CCCCC4)cnn23)cn1 [Example 89, N-(isoxazol-3-ylmethyl)-5-(3-(piperidine-1-carbonyl)pyrazolo[1,5-a]pyridin-7-yl)picolinamide] | > 1.5 | –

Row | SMILES | IC50 [2] | fold induction at 1 µM [1, 3] | fold induction at 1 µM ([1]; A549, 24 h)
31 | O=C(c1cnn2c(-c3ccccc3)cccc12)N1C2CCC1CC2 [Example 229, (7-azabicyclo[2.2.1]heptan-7-yl)(7-phenylpyrazolo[1,5-a]pyridin-3-yl)methanone] | ≤ 100 nM | – | > 1.5
